{"source": "paper PMC4412285", "about": "“Broadening the repertoire of melanoma-associated T-cell epitopes” (Cancer Immunology, Immunotherapy : CII, 2015)", "key": {"[1]": {"test_system": "melanoma cell lines FM3 (HLA-A3+gp100+) and FM28 (HLA-A3-gp100+)", "assay": "51Chromium-release cytotoxicity assay, melanoma cell lines", "type": "cell-based, human", "details": "51Cr release, 4 h", "experimental": "To measure the ^51Chromium-release, 5 × 10^5 target cells in 100 µl R10 were labeled with ^51Cr (100 µCi; Amersham, Arlington Heights, IL) and pulsed with peptide at 37 °C for 1 h when indicated. The washed target cells were incubated with effector cells at various effector/target ratios in 96-well plates at 37 °C for 4 h before 100 µl of medium was aspirated and the ^51Cr release counted in a gamma counter (Wallac Wizard 1470 Automatic Gamma Counter, Perkin Elmer). The maximum ^51Cr release was determined in separate wells by adding 100 µl of 10 % Triton X-100, and the spontaneous release was determined by adding 100 µl of R10 to target cells only. […] The target cells were melanoma cell lines FM3 (HLA-A3^+gp100^+) and FM28 (HLA-A3^−gp100^+)."}, "HLA-A11": {"biological_target": "T1, HLA-A11 (Homo sapiens, UniProt P04439, A114D/F33Y/S129P)", "T1 construct": "made in house; host or cells: Escherichia coli", "assay": "MHC ELISA after UV light-mediated peptide exchange", "type": "binding", "design": "key: 1 = confirm ed ligand", "details": "MHC rescue after UV-induced peptide exchange, absorbance normalized to control ligand HLA-A11/EBV EBNA4AVF, selected if above 0.90 of control in either of two experiments, duplicates"}}, "data": [{"sequence": "LIYRRRLMK", "values": [{"measurement": "Cold target inhibition of FM3 killing by T2-A3 cells pulsed with the peptide", "setting": "[1]; not affected by T2-A3 cells pulsed with an irrelevant peptide (Fig. 3e)", "value": "specifically inhibited"}, {"measurement": "T cell-mediated killing of melanoma cell lines FM3 and FM28", "setting": "[1]; HLA-A3-restricted specific T cells, 37 °C (Fig. 3d)", "value": "selective killing of the HLA-A3-positive melanoma cell line FM3"}, {"measurement": "Confirmed ligand", "setting": "HLA-A11", "value": 1}]}]}
